Reference: patent US20090068290A1, “BIFEPRUNOX DOSES FOR TREATING SCHIZOPHRENIA” (priority 2006, published 2009)

Legend:
Assay type in all cases: in vivo, human
[1] = system: adult subjects with schizophrenia; experiment: PANSS responder rates, Clinical Study Three
Experimental: There were four treatment arms in this study, approximately 144 subjects per arm. […] After completing the Single-Blind Placebo Lead-in Period of at least three days, bifeprunox-treated subjects were titrated from 0.25 mg up to 20 mg/day or 30 mg/day according to a standardized titration scheme over a seven- or eight-day period, respectively. When the assigned dose was reached, subjects were maintained at that dose for the remainder of the six week treatment period. […] Subjects were hospitalized (if not already inpatients) after eligibility for study entry was verified, starting from the Screening Visit until at least 10 days after Baseline. Subjects could be hospitalized longer than 10 days if considered medically necessary by the Investigator. Rating scale assessments for efficacy and abnormal movement disorders were done weekly except for Week 5. Safety assessments were performed at Screening, during treatment and at the end of the study. Subject satisfaction with study medication was assessed at Week 6. Samples of whole blood were obtained at Weeks 2, 4, and 6 for determination of bifeprunox in plasma.
CLINICAL STUDY THREE. A PANSS responder was defined as a subject whose PANSS total score decreased by 20% or more from Baseline to Endpoint. As exploratory analyses, responder rates were also analyzed using a 30%, 35%, 40%, and 50% definition of responder.

[2] = system: adult subjects with schizophrenia; experiment: SAS, BAS and AIMS movement scales, Clinical Study Two; settings: Risperidone 6 mg
Experimental: Pharmacokinetic (PK) data of bifeprunox in schizophrenic subjects were also assessed and are presented in a separate report (combined with data from study S1543003).
The SAS is used to measure Parkinsonian-type symptoms in patients exposed to antipsychotics. The scale consists of 10 items, each rated on a 5-point scale ranging from 0 (complete absence of the condition) to 4 (presence of the condition in extreme form). The SAS total score is defined as the sum of all item scores, and the range is 0 to 40. A SAS total score of up to 3 is considered normal.
The BAS is used to rate observable, restless movements of drug-induced akathisia as well as the subjective awareness of restlessness and any distress associated with the akathisia. The scale consists of 3 items that is rated from 0 (no evidence of akathisia) to 3 (severe akathisia). The BAS total score is defined as the sum of the these three BAS item scores and ranges from is 0 to 9. In addition, a global clinical assessment of akathisia is rated from 0 (no evidence of akathisia) to 5 (severe akathisia).
The AIMS, designed to record the occurrence of dyskinetic movements, consists of 12 items. Items 1 to 7 measure specific involuntary movements on a scale from 0 (none) to 4 (severe). Items 8 to 10 measure global assessment of abnormal movement on a scale from 0 (no awareness) to 4 (aware, severe distress). Items 11 and 12 are questions regarding the dental condition of the patient, with yes/no answers. The total score is calculated by summing AIMS items 1 through 10 and ranges from 0 to 40; the non-global total score is calculated by summing items 1 through 7.

[3] = system: adult subjects with schizophrenia; experiment: CGI Severity of Illness score, Clinical Study Two; settings: LOCF; for Change from Baseline in CGI Severity of Illness Score, Mean (SD) / Change from Baseline in CGI Severity of Illness Score, Median: Risperidone 6 mg, ITT population
Experimental: (§1) Rating scale assessments were performed weekly, except for week 5, to measure the change from baseline to endpoint of the PANSS total score. Other assessments included: PANSS positive symptom subscale score, PANSS negative symptom subscale score, PANSS general pschopathology subscale score, BPRS total score, BPRS psychosis score, the CGI-S score, the CGI-I score, responder rates based on the PANSS total score, and the Calgary Depression Scale for Schizophrenia (CDSS). […]
(§2) Subjects who completed this study had the option to continue in the long-term. […] Risperidone-treated subjects were titrated from 2 mg to 6 mg daily over a three-day period and were subsequently maintained at 6 mg/day for the remainder of the treatment period. […] Blood samples were also obtained at Screening/Baseline, Week 3, and Week 6 for clinical laboratory assessments.

[4] = system: adult subjects with schizophrenia; experiment: Calgary Depression Scale for Schizophrenia (CDSS), Clinical Study Two; settings: LOCF; for Change from Baseline in CDSS Total Score, Mean (SD) / Change from Baseline in CDSS Total Score, Median: 6 mg
Experimental: as §1, §2

[5] = Body weight, Clinical Study Two; settings: Risperidone 6 mg

SMILES: Cc1cc2c(s1)Nc1ccccc1N=C2N1CCN(C)CC1 [Olanzapine, olanzapine, reference compound]
- PANSS 20% definition response rate No, % ([1]; 15 mg, Week 6/Endpoint, LOCF): 46%
- PANSS 20% definition response rate Yes, % ([1]; 15 mg, Week 6/Endpoint, LOCF): 54%
- 20% PANSS responder rate ([1]; olanzapine 15 mg, Endpoint LOCF): 54%

SMILES: Cc1nc2n(c(=O)c1CCN1CCC(c3noc4cc(F)ccc34)CC1)CCCC2 [Risperidone, risperidone, reference compound]
- subjects with abnormal SAS scores at Endpoint [2]: 14%
- Change from Baseline in CGI Severity of Illness Score, Mean (SD) ([3]; Week 1): −0.39 (0.63)
- Change from Baseline in CGI Severity of Illness Score, Median ([3]; Week 1): 0.0
- Change from Baseline in CGI Severity of Illness Score, Mean (SD) ([3]; Week 2): −0.73 (0.95)
- Change from Baseline in CGI Severity of Illness Score, Median ([3]; Week 2): −1.0
- Change from Baseline in CGI Severity of Illness Score, Mean (SD) ([3]; Week 3): −0.94 (1.00)
- Change from Baseline in CGI Severity of Illness Score, Median ([3]; Week 3): −1.0
- Change from Baseline in CGI Severity of Illness Score, Mean (SD) ([3]; Week 4): −1.02 (1.09)
- Change from Baseline in CGI Severity of Illness Score, Median ([3]; Week 4): −1.0
- Change from Baseline in CGI Severity of Illness Score, Mean (SD) ([3]; Week 6/Endpoint): −1.06 (1.20)
- Change from Baseline in CGI Severity of Illness Score, Median ([3]; Week 6/Endpoint): −1.0
- mean change (SD) from Baseline to Endpoint in CGI severity of illness score ([3]; risperidone 6 mg, ITT): −1.06 (1.20)
- Change from Baseline in CDSS Total Score, Mean (SD) ([4]; Week 1): −0.62 (2.42)
- Change from Baseline in CDSS Total Score, Median ([4]; Week 1): 0.0
- Change from Baseline in CDSS Total Score, Mean (SD) ([4]; Week 2): −0.74 (2.71)
- Change from Baseline in CDSS Total Score, Median ([4]; Week 2): 0.0
- Change from Baseline in CDSS Total Score, Mean (SD) ([4]; Week 3): −0.93 (3.41)
- Change from Baseline in CDSS Total Score, Median ([4]; Week 3): 0.0
- Change from Baseline in CDSS Total Score, Mean (SD) ([4]; Week 4): −0.95 (3.08)
- Change from Baseline in CDSS Total Score, Median ([4]; Week 4): 0.0
- Change from Baseline in CDSS Total Score, Mean (SD) ([4]; Week 6/Endpoint): −0.89 (3.42)
- Change from Baseline in CDSS Total Score, Median ([4]; Week 6/Endpoint): 0.0
- mean change (SD) from Baseline to Endpoint in CDSS score ([4]; risperidone 6 mg, ITT): −0.89 (3.42)
- Weight, Baseline Mean of subjects with Endpoint change [5]: 174.5 lbs
- Weight, Baseline Mean of subjects with Week 6 change [5]: 166.6 lbs
- Weight, Baseline, Max [5]: 404 lbs
- Weight, Baseline, Mean (SD) [5]: 174.3 (58.5) lbs
- Weight, Baseline, Median [5]: 170 lbs
- Weight, Baseline, Min [5]: 82 lbs
- Weight, Change from Baseline at Endpoint, Max [5]: 33 lbs
- Weight, Change from Baseline at Endpoint, Mean (SD) [5]: 3.2 (7.4) lbs
- Weight, Change from Baseline at Endpoint, Median [5]: 2 lbs
- Weight, Change from Baseline at Endpoint, Min [5]: −20 lbs
- Weight, Change from Baseline at Week 6, Max [5]: 33 lbs
- Weight, Change from Baseline at Week 6, Mean (SD) [5]: 4.1 (7.6) lbs
- Weight, Change from Baseline at Week 6, Median [5]: 2 lbs
- Weight, Change from Baseline at Week 6, Min [5]: −12 lbs
- mean weight change at Endpoint [5]: 3.2 lbs
